This note sets out measurements from patent US20020173468A1, “MODIFIED CYTOSTATIC AGENTS” (priority 1996, published 2002).

Molecules are shown by their SMILES. Counter-ions that a name gives are not always drawn.

What all share (assay type): cell-based
The subject of assay [1] is HT 29 human colonic tumour cell line. Kind of assay: Growth inhibition test (MTT) for cytotoxic properties, HT 29. The settings on record: HT 29 cells. As to the method: (§1) 1. Growth Inhibition Test for the Determination of Cytotoxic Properties
(§2) They were then trypsinized and taken up in RPMI plus 10% FCS to give a cell count of 50,000 cells/ml. 100 μl of cell suspension/well were added to a 96 microwell plate and incubated for 1 day at 37° C. in a CO2 incubator. A further 100 μl of RPMI medium and 1 μl of DMSO were then added with the test substances. The growth was checked after day 3 and day 6. To do this, 40 μl of MTT solution (3-(4,5-dimethylthiazol-2-yl)-2,5-diphenyl-tetrazolin bromide) were added to each microwell at a starting concentration of 5 mg/ml of H2O. Incubation was carried out at 37° C. for 5 hours in the CO2 incubator. The medium was then aspirated and 100 μl of i-propanol/well were added. After shaking for 30 min with 100 μl of H2O, the extinction was measured at 540 nm using a Titertek Multiskan MCC/340 (flow).
(§3) The cytotoxic action is indicated in Table 1 as an IC50 value in each case for the SW 480 and HT 29 and B16F10 cell lines: […]

Assay [2] concerns SW 480 human colonic tumour cell line. Nature of the assay: Growth inhibition test (MTT) for cytotoxic properties, SW 480. The settings on record: SW 480 cells. On the procedure: as §1, §2, §3
For assay [3], the system named is B16F10 mouse melanoma cell line. Kind of assay: Growth inhibition test (MTT) for cytotoxic properties, B16F10. Particulars: B16F10 cells. As to the method: as §1, §2, §3
Assay [4] has as its system mouse bone marrow stem cells. Kind of assay: Inhibition of the CSF-induced proliferation of mouse bone marrow stem cells (colony formation). Particulars: recombinant murine GM-CSF, 7 days; for IC50: Mus musculus, 168 h. On the procedure: 2. Haematopoietic Activity of Conjugates in Comparison with the Basic Active Compound
Bone marrow cells were rinsed from mouse femurs. 10^5 cells were incubated in McCoy 5A medium (0.3% agar) together with recombinant murine GM-CSF (Genzyme; stem cell colony formation) and the substances (10^−4 to 100 μg/ml) at 37° C. and 7% CO2. 7 days later, the colonies ([…]50 cells) and clusters (17-50 cells) were counted.

With `Cl.NCCCCC(NC(=S)Nc1ccc(O)cc1)C(=O)NC1C=CCC2CN(c3c(F)cc4c(=O)c(C(=O)O)cn(C5CC5)c4c3Cl)CC21` (racemic) [2.4), N-[N^α-(4-Hydroxy-phenylamino-thiocarbonyl)-lysyl]-quinolone-a, hydrochloride], the 50% inhibitory concentration (IC50) (as a rule, the midpoint of a concentration-inhibition curve) in assay [1] is 0.9 µM; in assay [2] it was 0.8 µM; in assay [3], 1 µM. The “IC50, inhibition of the CSF-induced proliferation of mouse bone marrow stem cells” value in assay [4] was 60.0 ng/mL.

As to `N[C@@H]1C=CC[C@@H]2CN(c3c(F)cc4c(=O)c(C(=O)O)cn(C5CC5)c4c3Cl)C[C@@H]21` (racemic) [Quinolone-a, 7-[(3aRS, 4RS, 7aSR)-4-amino-1,3,3a,4,7,7a-hexahydro-iso-indol-2-yl]-8-chloro-1-cyclopropyl-6-fluoro-1,4-dihydro-4-oxo-3-quinolinecarboxylic acid, reference compound], the half-maximal inhibitory concentration (IC50) in assay [4] turned out to be 0.2 ng/mL.

Take `CCC1(OC(=O)C(C)NC(=O)C(CCCCNC(=S)Nc2ccc(O)cc2)NC(=S)Nc2ccc(O)cc2)C(=O)OCc2c1cc1n(c2=O)Cc2cc3ccccc3nc2-1` (stereo not drawn) [4.9), 20-O-[N^α,N^ε-bis-(4-Hydroxy-phenylamino-thiocarbonyl)-lysyl-alanyl]-camptothecin]: the results for the IC50 in assay [1], in assay [2] and in assay [3] were 0.015 µM, 0.02 µM and 0.2 µM, respectively. The “IC50, inhibition of the CSF-induced proliferation of mouse bone marrow stem cells” value in assay [4] is 22 ng/mL.

For `CC[C@@]1(OC(=O)[C@@H](NC(=O)[C@H](CCCCN)NC(=S)Nc2cccc(O)c2)C(C)C)C(=O)OCc2c1cc1n(c2=O)Cc2cc3ccccc3nc2-1` [4.12), 20-O-[N^α-(3-Hydroxy-phenylamino-thiocarbonyl)-lysyl-valyl]-camptothecin, hydrochloride], the results for the half-inhibitory concentration (IC50) in assay [1], in assay [2] and in assay [3] were 0.03 µM, 0.04 µM and 0.2 µM, respectively.

On to `CC[C@@]1(OC(=O)C(NC(=O)C(CCCCN)NC(=S)Nc2ccccc2O)C(C)C)C(=O)OCc2c1cc1n(c2=O)Cc2cc3ccccc3nc2-1` (stereo partly drawn) [4.13), 20-O-[N^α-(2-Hydroxy-phenylamino-thiocarbonyl)-lysyl-valyl]-camptothecin, hydrochloride], for which the IC50 in assay [1] was found to be 0.04 µM; in assay [2] it was 0.06 µM; in assay [3] it was 0.2 µM.

`CCC1(OC(=O)[C@@H](NC(=O)[C@H](CCCCN)NC(=S)Nc2ccc(OC)cc2)C(C)C)C(=O)OCc2c1cc1n(c2=O)Cc2cc3ccccc3nc2-1` (stereo partly drawn) [4.14), 20-O-[N^α-(4-Methoxy-phenylamino-thiocarbonyl)-lysyl-valyl]-camptothecin, hydrochloride]: the IC50 in assay [1] was found to be 0.075 µM; in assay [2], 0.16 µM; in assay [3] it was 0.75 µM.

Turning to `CCC1(OC(=O)C(NC(=O)C(CCCCN)NC(=S)Nc2cccc(OC)c2)C(C)C)C(=O)OCc2c1cc1n(c2=O)Cc2cc3ccccc3nc2-1` (stereo not drawn) [4.15), 20-O-[N^α-(3-Methoxy-phenylamino-thiocarbonyl)-lysyl-valyl]-camptothecin, hydrochloride], the half-maximal inhibitory concentration (IC50) came out at 0.06 µM in assay [1], 0.09 µM in assay [2] and 0.2 µM in assay [3].

With `CCC1(OC(=O)C(NC(=O)C(CCCCN)NC(=S)Nc2ccc([N+](=O)[O-])cc2)C(C)C)C(=O)OCc2c1cc1n(c2=O)Cc2cc3ccccc3nc2-1` (stereo not drawn) [4.16), 20-O-[N^α-(4-Nitro-phenylamino-thiocarbonyl)-lysyl-valyl]-camptothecin, hydrochloride], the IC50 in assay [1] amounted to 0.12 µM; in assay [2] it was 0.15 µM; in assay [3] it was 0.6 µM.

As to `CCC1(OC(=O)C(NC(=O)C(CCCCN)NC(=S)Nc2cccc([N+](=O)[O-])c2)C(C)C)C(=O)OCc2c1cc1n(c2=O)Cc2cc3ccccc3nc2-1` (stereo not drawn) [4.17), 20-O-[N^α-(3-Nitro-phenylamino-thiocarbonyl)-lysyl-valyl]-camptothecin, hydrochloride], the half-maximal inhibitory concentration (IC50) stood at 0.17 µM in assay [1], 0.3 µM in assay [2] and 0.8 µM in assay [3].

For `CCC1(OC(=O)C(NC(=O)C(CCCCN)NC(=S)Nc2ccc(N)cc2)C(C)C)C(=O)OCc2c1cc1n(c2=O)Cc2cc3ccccc3nc2-1` (stereo not drawn) [4.18), 20-O-[N^α-(4-Amino-phenylamino-thiocarbonyl)-lysyl-valyl]-camptothecin, hydrochloride], the values for the IC50 in assay [1], in assay [2] and in assay [3] were 0.12 µM, 0.3 µM and 0.4 µM, respectively.

In the case of `CCC1(OC(=O)C(NC(=O)C(Cc2c[nH]cn2)NC(=S)Nc2ccc(O)cc2)C(C)C)C(=O)OCc2c1cc1n(c2=O)Cc2cc3ccccc3nc2-1` (stereo not drawn) [4.19), 20-O-[N^α-(4-Hydroxy-phenylamino-thiocarbonyl)-histidyl-valyl]-camptothecin, hydrochloride], the IC50 in assay [1] was determined as 0.04 µM; in assay [2] it was 0.08 µM; in assay [3], 0.4 µM.

With `CCC1(OC(=O)C(CC(C)C)NC(=O)C(CCCCN)NC(=S)Nc2ccc(O)cc2)C(=O)OCc2c1cc1n(c2=O)Cc2cc3ccccc3nc2-1` (stereo not drawn) [4.20), 20-O-[N^α-(4-Hydroxy-phenylamino-thiocarbonyl)-lysyl-leucyl]-camptothecin, hydrochloride], the 50% inhibitory concentration (IC50) is 0.06 µM in assay [1], 0.07 µM in assay [2] and 0.3 µM in assay [3].

`CCC1(OC(=O)C(NC(=O)C(CCCCNC(=S)Nc2ccc(O)cc2)NC(=S)Nc2ccc(O)cc2)C(C)C)C(=O)OCc2c1cc1n(c2=O)Cc2cc3ccccc3nc2-1` (stereo not drawn) [4.21), 20-O-{[N^α-N^ε-bis-(4-Hydroxy-phenylamino-thiocarbonyl)]-lysyl-valyl}-camptothecin, hydrochloride]: the figures for the concentration for half-maximal inhibition (IC50) in assay [1], in assay [2] and in assay [3] were 0.3 µM, 0.7 µM and 3 µM, respectively.

Turning to `CC[C@@]1(OC(=O)C(CC(=O)O)NC(=O)C(CCCCNC(=S)Nc2ccc(O)cc2)NC(=S)Nc2ccc(O)cc2)C(=O)OCc2c1cc1n(c2=O)Cc2cc3ccccc3nc2-1` (stereo partly drawn) [4.22), 20-O-[N^α,N^ε-bis-(4-Hydroxy-phenylamino-thiocarbonyl)-lysyl-aspartyl]-camptothecin, sodium salt], the IC50 in assay [1] stood at 0.04 µM; in assay [2], 0.04 µM; in assay [3], 0.1 µM.

Take `CCC1(OC(=O)C(CO)NC(=O)C(CCCCNC(=S)Nc2ccc(O)cc2)NC(=S)Nc2ccc(O)cc2)C(=O)OCc2c1cc1n(c2=O)Cc2cc3ccccc3nc2-1` (stereo not drawn) [4.23), 20-O-[N^α,N^ε-bis-(4-Hydroxy-phenylamino-thiocarbonyl)-lysyl-seryl]-camptothecin]: the IC50 in assay [1] worked out at 0.07 µM; in assay [2], 0.08 µM; in assay [3], 0.15 µM.

For `CCc1c2c(nc3ccccc13)-c1cc3c(c(=O)n1C2)COC(=O)C3(CC)OC(=O)C(C)NC(=O)C(CCCCNC(=S)Nc1ccc(O)cc1)NC(=S)Nc1ccc(O)cc1` (stereo not drawn) [5.1), 7-Ethyl-20-O-[N^α,N^ε-bis-(4-hydroxy-phenylamino-thiocarbonyl)-lysyl-alanyl]-camptothecin], the half-inhibitory concentration (IC50) was determined as 0.02 µM in assay [1], 0.025 µM in assay [2] and 0.05 µM in assay [3].

Take `CCc1c2c(nc3ccccc13)-c1cc3c(c(=O)n1C2)COC(=O)C3(CC)OC(=O)C(NC(=O)C(CCCCN)NC(=S)Nc1ccc(O)cc1)C(C)C` (stereo not drawn) [5.2), 7-Ethyl-20-O-[N^α-(4-hydroxy-phenylamino-thiocarbonyl)-lysyl-valyl]-camptothecin, hydrochloride]: the IC50 is 0.3 µM in assay [1], 0.5 µM in assay [2] and 0.9 µM in assay [3].

On to `CCC1(OC(=O)[C@H](CC(C)C)NC(=O)[C@H](CCCCN)NC(=S)Nc2ccc(O)cc2)C(=O)OCc2c1cc1n(c2=O)Cc2cc3cc4c(cc3nc2-1)OCO4` (stereo partly drawn) [6), 10,11-(Methylenedioxy)-20-O-[N^α-(4-hydroxy-phenylaminothio-carbonyl)-lysyl-leucyl]-camptothecin, hydrochloride], for which the IC50 in assay [1] is 0.003 µM; in assay [2], 0.005 µM; in assay [3], 0.015 µM.

`CCC1(O)C(=O)OCc2c1cc1n(c2=O)Cc2c-1nc1ccccc1c2COC(=O)[C@@H](NC(=O)[C@H](CCCCN)NC(=S)Nc1ccc(O)cc1)C(C)C` (stereo partly drawn) [7), 7-[N^α-(4-Hydroxy-phenylamino-thiocarbonyl)-lysyl-valyloxymethyl]-camptothecin, hydrochloride]: the IC50 in assay [1] stood at 0.08 µM; in assay [2], 0.06 µM; in assay [3], 1 µM.

For the compound `CCc1c2c(nc3ccc(O)cc13)-c1cc3c(c(=O)n1C2)COC(=O)C3(CC)OC(=O)[C@@H](NC(=O)[C@H](CCCCN)NC(=S)Nc1ccc(O)cc1)C(C)C` (stereo partly drawn) [8), 7-Ethyl-10-hydroxy-20-O-[N^α-(4-hydroxy-phenylamino-thiocarbonyl)-lysyl-valyl]-camptothecin, hydrochloride], the IC50 was found to be 0.2 µM in assay [1], 0.15 µM in assay [2] and 3 µM in assay [3].

On to `CC[C@@]1(O)C(=O)OCc2c1cc1n(c2=O)Cc2cc3ccccc3nc2-1` [Camptothecin, 20(S)-Camptothecin, reference compound], for which the half-inhibitory concentration (IC50) in assay [4] stood at 0.4 ng/mL.
